From publication PMC11249626, “Fluorophore-Labeled Pyrrolones Targeting the Intracellular Allosteric Binding Site of the Chemokine Receptor CCR1” (ACS Pharmacology & Translational Science, 2024)
Read-outs that look alike come from different tables or passages of the source.

Target: T1, CCR1 (Homo sapiens, UniProt P32246)
T1 sequence (P32246 1-355): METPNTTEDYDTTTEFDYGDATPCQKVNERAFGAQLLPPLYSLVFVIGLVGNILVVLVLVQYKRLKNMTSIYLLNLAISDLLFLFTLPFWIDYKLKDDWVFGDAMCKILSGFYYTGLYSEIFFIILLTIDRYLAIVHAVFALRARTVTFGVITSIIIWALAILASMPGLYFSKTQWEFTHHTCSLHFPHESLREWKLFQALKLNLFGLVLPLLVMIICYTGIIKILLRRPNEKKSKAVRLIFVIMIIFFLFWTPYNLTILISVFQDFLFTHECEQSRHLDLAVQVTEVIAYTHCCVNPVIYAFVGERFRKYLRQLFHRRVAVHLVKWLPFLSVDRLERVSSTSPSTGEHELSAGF
Experiment: Membrane-based NanoBRET association and dissociation kinetic assays with 12
Type: binding
Set-up: Promega pNLF1-C (Nluc) #CCR010TN00; host or cells: HEK293T, transient (PEI)
Experimental: Membrane-based NanoBRET association kinetic assay: 5 µL of a solution of the fluorescent ligand (12) diluted to varying concentrations (final assay concentrations: 1–3 µM) in assay buffer and 5 µL of assay buffer were transferred to a 384-well plate. For the determination of non-specific binding, we added a solution of a non-labeled competitor dissolved in assay buffer (5, final assay concentration: 10 µM) instead. After the addition of 5 µL of a furimazine solution (final assay dilution:
1:630 in assay buffer), plates were incubated for 3 minutes in the dark at ambient temperature. Subsequently, 20 µL of the membrane preparation (3 µg total protein/well) were added (final assay volume: 35 µL). BRET ratios were measured with a CLARIOstar microplate reader using 620/10 nm and 475/30 nm emission filters over time at ambient temperature.
The obtained data were analyzed using the association kinetics (one ligand concentration) algorithm in PRISM10.2.1 (GraphPad, USA) to determine association kinetics using a pre-determined koff as a constraint.
Membrane-based NanoBRET dissociation kinetic assay: 5 µL of a solution of the fluorescent ligand (12) diluted to varying concentrations (final assay concentrations: 0.25–3 µM) in assay buffer and 5 µL of assay buffer were transferred to a 384-well plate. In order to determine non-specific binding, we added a solution of a non-labeled competitor dissolved in assay buffer (5, final assay concentration: 10 µM) instead of the 5 µL of assay buffer. Then, 20 µL of the membrane preparation (3 µg total protein/well) were added, and plates were incubated for 1 h at ambient temperature in the dark.
Subsequently, 5 µL of a furimazine solution (final assay dilution: 1:630 in assay buffer) were added. Plates were incubated for further 5 minutes in the dark at ambient temperature. Thereafter, 1 µL of a solution of a […] competitor dissolved in assay buffer (5, final assay concentration: 10 µM) was added. For control experiments, we added 1 µL of assay buffer instead of the competitor solution. BRET ratios were measured with a CLARIOstar microplate reader using 620/10 nm and 475/30 nm emission filters over time at ambient temperature. Specific BRET ratios were calculated as a difference of total and non -specific binding. […]
mM HEPES, no phenol red supplemented with 5% FBS) was added and cells were incubated at 37 °C for 30 minutes.
Then, 5 µL of a solution containing the fluorescent ligand ( 12), diluted in assay medium at varying concentrations, were added in case of saturation binding experiments. To determine non-specific binding, 5 µL of a solution of 5 dissolved in assay medium (final assay concentration: 10 µM) were added. For competition binding experiments, 5 µL of a solution of the fluorescent ligand (12) diluted in assay medium (final assay concentration: 1 µM) and 5 µL of a solution of the potential competitor (diluted from 10 mM DMSO-stock solutions with assay medium) at varying concentrations were added to the corresponding wells. After 90 min of incubation at 37 °C, 5 µL of a furimazine solution (final assay dilution: 1:2500, diluted with assay medium) were added. After a further incubation of 5 min in the dark at 37 °C, BRET ratios were measured with a CLARIOstar microplate reader using 620/10 nm and 475/30 nm emission filters. Total, non-specific and specific binding, which was calculated as a difference of total and non-specific binding, were analyzed using the algorithms for one-site saturation binding in PRISM10.2.1 (GraphPad, USA). To determine the inhibition constants (Ki) of the potential competitors, data were normalized to total and non-specific binding and analyzed using the one site-fit Ki equation in PRISM10.2.1 (GraphPad, USA).
Kinetic solubility assay: Kinetic solubility was assessed in saline phosphate buffer pH 7.25 (1.19 g Na2HPO4·12 H2O, 0.095 g KH2PO4 and 4.0 g NaCl in 0.5 L double distilled water). The pH was adjusted to 7.25 with concentrated […]
hydrochloric acid. […]

Kd (CCR1_Nluc membranes, from kon and koff, read-out: kinetic KD value KD(kin.)): 317 ± 32 nM
koff (CCR1_Nluc membranes, read-out: koff (converted)): 0.00233 s⁻¹
kon (CCR1_Nluc membranes, read-out: kon (converted)): 7350 M⁻¹ s⁻¹
residence time (CCR1_Nluc membranes, read-out: residence time tr): 7.31 ± 0.22 min
kon (association at room temperature (membranes), read-out: kon, mean (Table S1) (converted)): 7360 M⁻¹ s⁻¹
tR, mean (Table S1) (dissociation at room temperature (membranes)): 7.31 min
koff, single experiments (Table S1) (dissociation at room temperature (membranes), 12 at 250-3000 nM): 0.001978 s⁻¹
koff (dissociation at room temperature (membranes), 12 at 250-3000 nM, read-out: koff, single experiments (Table S1) (converted)): 0.00172 s⁻¹
koff (dissociation at room temperature (membranes), read-out: koff, mean (Table S1) (converted)): 0.00233 s⁻¹
Compound: CN(C)c1ccc2c(-c3cc(C(=O)NCCOCCOCc4cn(CCCC(=O)C5=C(O)C(=O)N(c6ccc(Br)cc6F)C5C5CCCCC5)nn4)ccc3C(=O)[O-])c3ccc(=[N+](C)C)cc-3oc2c1 (stereo not drawn) [compound 12]
